Test results as given in patent publication US6423854B1, “Aminophenol derivatives and their use in cosmetics” (L'Oreal, priority 1997, dated 2002).

Tested on: co-culture of keratinocytes and melanocytes
Experiment: Inhibition of melanogenesis (depigmenting activity) in a co-culture of keratinocytes and melanocytes
Type: cell-based
Details: for Class (maximum depigmenting activity): inhibition of melanogenesis relative to control; for IC50: co-culture of keratinocytes and melanocytes, read-out: IC50 (concentration for which a 50% inhibition of melanogenesis is observed)
Experimental: This test corresponds to the one described in patent FR 2,734,825 filed by the Applicant, as well as in the article by R. Schmidt, P. Krien and M. Régnier, Anal. Biochem., 235(2), 113-18, (1996). This test is thus carried out on a co-culture of keratinocytes and melanocytes.
For each test compound, the IC50 value, which corresponds to the micromolar (μM) concentration for which a 50% inhibition of melanogenesis is observed, is determined.
Moreover, each of these compounds is classed as regards their maximum depigmenting activity:
Class 1: 10 to 30% inhibition of melanogenesis relative to the control (same experiment without test compound);
Class 2: 30 to 60% inhibition of melanogenesis relative to the control (same experiment without test compound);
Class 3: 60 to 100% inhibition of melanogenesis relative to the control (same experiment without test compound).

Row | Compound | Class (maximum depigmenting activity) (1 μM) | IC50 | Class (maximum depigmenting activity) (200 μM) | Class (maximum depigmenting activity) (500 μM)
1 | CCOC(=O)Nc1ccc(O)cc1 [Compound of Example 1, N-Ethyloxycarbonyl-4-aminophenol] | 3 to 1 μM (Class 3: 60 to 100% inhibition of melanogenesis relative to the control) | 1 µM | – | –
2 | CCOC(=O)Nc1ccc(OC(=O)OCC)cc1 [Compound of Example 2, N-Ethyloxycarbonyl-O-ethyloxycarbonyl-4-aminophenol] | – | 50 µM | 3 to 200 | –
3 | CC(C)CCC[C@@H](C)[C@H]1CC[C@H]2[C@@H]3CC=C4C[C@@H](OC(=O)Nc5ccc(O)cc5)CC[C@]4(C)[C@H]3CC[C@]12C [Compound of Example 3, N-Cholesteryloxycarbonyl-4-aminophenol] | – | 10 µM | 3 to 200 | –
4 | O=c1cc(CO)occ1O [Kojic acid, reference compound] | – | 500 µM | – | 2 to 500
